Results published in publication PMC9572083, “Hybrids of 1,4-Quinone with Quinoline Derivatives: Synthesis, Biological Activity, and Molecular Docking with DT-Diaphorase (NQO1)” (Molecules, 2022).

What was measured:
HFF-1 cells = test: Cytotoxic activity, WST-1 assay, normal fibroblasts HFF-1; assay type: cell-based; settings: Homo sapiens, normal fibroblasts HFF-1, 72 h
Source text: (§1) Anticancer activity of compounds 11–14 was designated against following human cancer cell lines: melanoma (Colo-829), ovarian cancer (SK-OV-3), breast cancer (MDA-MB-231, T47D and MCF-7), lung cancer (A549) and normal fibroblasts (HFF-1). As a reference substance, the doxorubicin was used. The results are presented in Table 1 as IC50, where IC50 means the concentration of tested compounds (µM) causing the growth inhibition of 50% for given tumor cells. The negative value (Neg.) means that the IC50 is higher than 30 µM. Selectivity index (SI) as the ratio of the IC50 for normal fibroblast (HFF-1) to IC50 of the corresponding cell line, is presented in Table S2.
(§2) Compounds 7–14 and doxorubicin were tested for cytotoxic activity in vitro against panel of human cancer cell lines: melanoma (Colo-829, ATCC, Rockville, MD, USA), ovarian cancer (SK-OV-3, ATCC, Rockville, MD, USA), breast cancer (T47D, MCF-7, and MDA-MB-231, ATCC, Rockville, MD, USA) and lung cancer (A549, ATCC, Rockville, MD, USA). The cultured cells were kept at 37 °C and 5% CO2. The cells were seeded (5 × 10^4 cells/well/[…] DMEM supplemented with 10% FCS and streptomycin/penicillin) using 96-well plates (Nunc Thermo Fisher Scientific, Waltham, MA, USA). The tested compounds 7–14 with the concentration of 1–100 µg/mL DMSO were inducted with the cancer cells for 72 h. The WST-1-formazan (proliferation reagent WST-1 assay, Roche Diagnostics, Mannheim, Germany) was detected using a microplate reader at 450 nm. Results were expressed as a mean value of at least three independent experiments performed in triplicate.

A549 cells = test: Cytotoxic activity, WST-1 assay, lung cancer A549; assay type: cell-based, human; settings: for SI (IC50 HFF-1/IC50 cancer line) A549: HFF-1 vs A549; for IC50: Homo sapiens, lung cancer A549, 72 h, WST-1
Source text: as §1, §2

T47D cells = test: Cytotoxic activity, WST-1 assay, breast cancer T47D; assay type: cell-based, human; settings: for IC50: Homo sapiens, breast cancer T47D, 72 h, WST-1; for SI (IC50 HFF-1/IC50 cancer line) T47D: HFF-1 vs T47D
Source text: as §1, §2

Colo-829 cells = test: Cytotoxic activity, WST-1 assay, melanoma Colo-829; assay type: cell-based, human; settings: for SI (IC50 HFF-1/IC50 cancer line) Colo-829: HFF-1 vs Colo-829; for IC50: Homo sapiens, melanoma Colo-829, 72 h, WST-1
Source text: as §1, §2

[1] = target: T1, NQO1 (DT-diaphorase, EC 1.6.5.5, human recombinant) (Homo sapiens, UniProt P15559); test: NQO1 substrate NADPH recycling enzymatic assay; assay type: biochemical; settings: compound 10 µmol/L, pH 7.4, 25 °C, absorbance at 340 nm
T1 construct: purchased Sigma-Aldrich
T1 sequence (P15559 whole entry): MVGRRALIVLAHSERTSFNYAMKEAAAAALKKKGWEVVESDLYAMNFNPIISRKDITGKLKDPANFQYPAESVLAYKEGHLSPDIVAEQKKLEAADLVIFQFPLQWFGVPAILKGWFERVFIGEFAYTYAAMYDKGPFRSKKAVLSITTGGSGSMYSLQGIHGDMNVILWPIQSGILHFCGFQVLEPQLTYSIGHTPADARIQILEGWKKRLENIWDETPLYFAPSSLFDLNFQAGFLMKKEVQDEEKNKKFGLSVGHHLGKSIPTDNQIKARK
Description: The interaction between 1,4-quinone moiety of hybrid and NQO1 protein leads to reduction in quinone to hydroquinone and production of reactive oxide form (ROS). According to a literature method, the ability of hybrids 11–14 and streptonigrin (ST) to be a substrate for NQO1 was examined by measuring the oxidation of NADPH to NADP^+ [29, 32].
Compounds 11–14 (10 µmol/L) were tested as NQO1 substrates using the NADPH recycling assay according to the literature method. The recombinant NQO1 (DT-diaphorase, EC 1.6.5.5, human recombinant, Sigma-Aldrich) was used, and the oxidation of NADPH to NADP^+ was measured at the absorption wavelength of 340 nm on the BioTek 800TS microplate reader (BioKom, Janki, Poland). Compounds were dissolved in dimethyl sulfoxide (2 µL) and added to the 96-well plate. The NQO1 protein (1.4 µg/mL) in 50 mmol/L potassium phosphate buffer (pH = 7.4) was added to each well (198 µL) (Nunc Thermo Fisher Scientific, Waltham, MA, USA). Once the 96-well plate was filled with the assay solutions, except the NADPH solution, it was placed into the instrument and left to sit for 5 min before starting the measurements. The enzymatic reaction was initiated by automatically dispensing the NADPH solution into the wells, and data were recorded at 10 s intervals for 5 min at 25 °C. The linear part of the absorbance vs. time graphs (the first 20 s to 1 min) was fitted, and the slopes were calculated. NADPH oxidation rates were compared with reactions lacking the tested compound. Initial velocities were calculated, and data were expressed as µmol NADPH/µmol NQO1/min. All reactions were carried out at least in triplicate.

MCF-7 cells = test: Cytotoxic activity, WST-1 assay, breast cancer MCF-7; assay type: cell-based, human; settings: for SI (IC50 HFF-1/IC50 cancer line) MCF-7: HFF-1 vs MCF-7; for IC50: Homo sapiens, MCF7, breast cancer MCF-7, 72 h, WST-1
Source text: as §1, §2

MDA-MB-231 cells = test: Cytotoxic activity, WST-1 assay, breast cancer MDA-MB-231; assay type: cell-based, human; settings: for SI (IC50 HFF-1/IC50 cancer line) MDA-MB-231: HFF-1 vs MDA-MB-231; for IC50: Homo sapiens, breast cancer MDA-MB-231, 72 h, WST-1
Source text: as §1, §2

SK-OV-3 cells = test: Cytotoxic activity, WST-1 assay, ovarian cancer SK-OV-3; assay type: cell-based, human; settings: for SI (IC50 HFF-1/IC50 cancer line) SK-OV-3: HFF-1 vs SK-OV-3; for IC50: Homo sapiens, ovarian cancer SK-OV-3, 72 h, WST-1
Source text: as §1, §2

| Structure (SMILES) | IC50 (HFF-1 cells) | SI (IC50 HFF-1/IC50 cancer line) A549 (A549 cells) | IC50 (A549 cells) | IC50 (T47D cells) | SI (IC50 HFF-1/IC50 cancer line) Colo-829 (Colo-829 cells) | IC50 (Colo-829 cells) | NQO1 activity (enzymatic conversion rate) [1] | SI (IC50 HFF-1/IC50 cancer line) MCF-7 (MCF-7 cells) | IC50 (MCF-7 cells) | SI (IC50 HFF-1/IC50 cancer line) MDA-MB-231 (MDA-MB-231 cells) | IC50 (MDA-MB-231 cells) | SI (IC50 HFF-1/IC50 cancer line) SK-OV-3 (SK-OV-3 cells) | IC50 (SK-OV-3 cells) | melting point | SI (IC50 HFF-1/IC50 cancer line) T47D (T47D cells) |
| --- | --- | --- | --- | --- | --- | --- | --- | --- | --- | --- | --- | --- | --- | --- | --- |
| O=C1C(Cl)=C(Oc2cccc3ccc(Cl)nc23)C(=O)c2ccccc21 [Compound 14d, 2-chloro-3-[(2-chloroquinolin-8-yl)oxy]naphthalene-1,4-dione] | 14.3 ± 1.23 µM | 1.76 | 8.13 ± 1.02 µM | > 30 µM | 0.80 | 18 ± 2.01 µM | 1001 ± 43 µmol NADPH/µmol NQO1/min | 1.23 | 11.7 ± 1.34 µM | 6.99 | 2.05 ± 0.35 µM | 1.01 | 14.1 ± 0.52 µM | 101 to 103 °C |  |
| O=Cc1ccc2cccc(OC3=C(Cl)C(=O)c4ccccc4C3=O)c2n1 [Compound 14c, 8-[(3-chloro-1,4-dioxo-1,4-dihydronaphthalen-2-yl)oxy]quinoline-2-carbaldehyde] | 18 ± 1.75 µM | 43.80 | 0.41 ± 0.06 µM | 1.62 ± 0.21 µM |  | > 30 µM | 550 ± 62 µmol NADPH/µmol NQO1/min |  | > 30 µM | 0.71 | 25.1 ± 0.97 µM | 71.84 | 0.25 ± 0.06 µM | 131 to 133 °C | 11.09 |
| Cc1ccc2c(n1)C(=O)C(Oc1cccc3ccc(Cl)nc13)=C(Cl)C2=O [Compound 12d, 6-chloro-2-methyl-7-[(2-chloroquinolin-8-yl)oxy]quinoline-5,8-dione] | 10.3 ± 1.65 µM | 7.04 | 1.46 ± 0.06 µM | 16.2 ± 0.98 µM | 0.78 | 13.1 ± 0.49 µM | 890 ± 21 µmol NADPH/µmol NQO1/min | 0.59 | 17.4 ± 0.82 µM | 0.66 | 15.6 ± 0.79 µM | 0.67 | 15.4 ± 0.48 µM | 120 to 122 °C | 0.64 |
| O=C1C(Cl)=C(Oc2cccc3ccc(Cl)nc23)C(=O)c2cnccc21 [Compound 13d, 6-chloro-7-[(2-chloroquinolin-8-yl)oxy]isoquinoline-5,8-dione] | 11.1 ± 1.07 µM | 184.83 | 0.06 ± 0.01 µM | > 30 µM | 5.66 | 1.96 ± 0.08 µM | 633 ± 32 µmol NADPH/µmol NQO1/min | 6.34 | 1.75 ± 0.19 µM | 6.64 | 1.67 ± 0.11 µM | 0.65 | 17.1 ± 1.76 µM | 127 to 129 °C |  |
| Cc1ccc2c(n1)C(=O)C(Oc1cccc3ccc(C=O)nc13)=C(Cl)C2=O [Compound 12c, 8-[(6-chloro-2-methyl-5,8-dioxo-5,8-dihydroquinolin-7-yl)oxy]quinoline-2-carbaldehyde] | 17.9 ± 1.37 µM | 5.70 | 3.14 ± 0.43 µM | 23.3 ± 1.12 µM | 1.23 | 14.6 ± 0.51 µM | 470 ± 22 µmol NADPH/µmol NQO1/min | 0.94 | 19.1 ± 0.95 µM | 0.85 | 21.12 ± 0.11 µM | 8.28 | 2.16 ± 0.19 µM | 184 to 186 °C | 0.77 |
| O=C1C(Cl)=C(Oc2cccc3ccc(N4CCCC4)nc23)C(=O)c2ccccc21 [Compound 14e, 2-chloro-3-{[2-(pyrrolidin-1-yl)quinolin-8-yl]oxy}naphthalene-1,4-dione] | 18.7 ± 1.36 µM | 0.84 | 22.1 ± 0.89 µM | > 30 µM | 0.85 | 22 ± 0.6 µM | 354 ± 22 µmol NADPH/µmol NQO1/min | 0.78 | 24.05 ± 0.21 µM | 2.43 | 7.66 ± 1.12 µM | 1.17 | 15.9 ± 0.22 µM |  |  |
| Cc1ccc2c(n1)C(=O)C(Oc1cccc3ccc(N4CCCC4)nc13)=C(Cl)C2=O [Compound 12e, 6-chloro-2-methyl-7-{[2-(pyrrolidin-1-yl)quinolin-8-yl]oxy}quinoline-5,8-dione] | 17.6 ± 1.05 µM | 1.16 | 15.1 ± 0.39 µM | 17.4 ± 1.3 µM | 11.48 | 1.53 ± 0.08 µM | 600 ± 35 µmol NADPH/µmol NQO1/min | 9.29 | 1.89 ± 0.23 µM | 11.71 | 1.5 ± 0.15 µM | 16.72 | 1.05 ± 0.06 µM |  | 1.01 |
